Assay results taken from patent publication US9834525B2, “Inhibitors of paxillin function and related compositions and methods” (UNIVERSITY OF TENNESSEE RESEARCH FOUNDATION, priority 2015, dated 2017).
Entries after “also recorded” stand apart in the source; their conditions may differ.

What was measured:
[1] = Microsomal stability, pooled mouse liver microsomes; format: in vitro ADME; settings: 1 μM, 37° C., 60 min
Method: (§1) Microsomal stability of compound (II-4) (1 μM) was assessed in pooled liver microsomes (human, mouse, and rat) (FIG. 7). Briefly, compound (II-4) was incubated in duplicate with microsomes at 37° C. Reactions contained microsomal protein in 100 mM potassium phosphate, 2 mM NADPH, 3 mM MgCl2, pH 7.4. NADPH was omitted to detect NADPH-free degradation. At 60 minutes, the reaction was stopped by adding ice-cold methanol containing internal standard. Samples were centrifuged to remove precipitated protein, and the supernatants were analyzed by LC/MS/MS to quantitate the remaining parent.
as §1, with “23).” for “7).”, “min,” for “minutes,”, “(+” for “containing”, “standard).” for “standard.”

[2] = tested on: 92.1 cell line; experiment: CFSE cellular proliferation, 92.1; format: cell-based, human; settings: 96 hrs culture, 1 μM for the last 24 hrs
Method: Harvested cells were resuspended at a concentration of 1.0×10^6 cells/mL in warm PBS/1% FBS. Cells were labeled with […] (Invitrogen) for 5 minutes at 37° C. then quenched on cold growth media (final volume 20 mL) for 10 minutes, twice. Cultured unlabeled cells were used as controls.
To test the hypothesis that inhibition of paxillin will reduce cellular proliferation UM cell lines were labeled with carboxyfluorescein succunimidyl ester (CFSE), a cell tracking dye, and cultured for 96 hrs. A group of cells received treatment with compound (II-4) for the last 24 hours. Maximum CFSE fluorescence was controlled using labeled cells prior culture −0 hr. Negative control was established using unlabeled cells cultured in parallel. Histograms in FIG. 15D show 96 hrs cultured cells divided with a 1-log shift or reduction in CFSE intensity. […] Cell proliferation was not affected in the 92.1 cell line. […]
FIG. 15: The paxillin inhibitor Compound (II-4) selectively affects cellular proliferation of primary UM cells that become metastatic. […] Unlabeled cells were used to control fluorescence. […] B. Quantitation of experiment +/−SD including primary UM that becomes metastatic (Mel 270), metastatic (OMM 2.1) and primary (92.1) UM cells. *P=0.0007 and **P=0.0005. […] Quantitation of VLA-4 protein levels +/−SD from n=3. […]

[3] = Microsomal stability, pooled human liver microsomes; format: in vitro ADME
Method: as §1
as §1, with “23).” for “7).”, “min,” for “minutes,”, “(+” for “containing”, “standard).” for “standard.”

[4] = tested on: murine OIR model; experiment: Murine OIR model, retinal whole-mounts; format: in vivo, mouse; settings: daily ocular administration 0.5 mg/kg or 5 mg/kg in ME, P12 to P17, vs vehicle
From the text: (§2) Topical delivery of compound (II-4) using an ocular ME was chosen for several reasons. First, intravitreal injection is technically challenging and, unlike intraocular delivery of proteins, is unnecessary for delivery of small molecules. […] The murine OIR model was used to examine the effect of compound (II-4) on the natural history of VEGF-induced proliferative retinopathy. Briefly, pups were exposed to 75% oxygen at post-natal day 7 (P7) for 5 days and then returned to normal oxygen at P12. Mice received daily ocular administration of either compound (II-4) (0.5 mg/kg or 5 mg/kg) or vehicle (ME) from P12 to P17. Eyes were enucleated at P17 and retinal whole-mounts stained for endothelial cells followed by quantification of avascular area and vascular tuft formation.
(§3) FIG. 22: Oxygen-Induced Retinopathy (OIR). (A:) P17 retinal whole-mounts were stained for endothelial cells. […] Data represent mean (±SD). N=8-14/group. […] (C): Quantitation of panel A neovascular area. (D): Quantitation of panel A avascular area. (E): Quantitation of panel B total paxillin.

[5] = tested on: retinal endothelial cells (REC); experiment: transwell (Boyden chamber) cell migration assay, VEGF-stimulated RECs; format: cell-based, human; settings: 24 hours of VEGF stimulation; +100, +500 nM
Method: Two methods of evaluating VEGF-induced REC migration were used to assess the impact of compound (II-4) on paxillin-mediated migration: the scratch assay and the transwell (Boyden chamber) cell migration assay. To test if paxillin inhibition would reduce VEGF-induced REC migration, RECs were wounded and treated with VEGF ([…]) +/− compound (II-4) ([…]). Wound closure was monitored by phase microscopy over 24 hours and area of wound closure was calculated using the sophisticated image analysis tools in Adobe Photoshop. Cells were then fixed and nuclei were stained using DAPI to show extent of cell migration.
Compound (II-4) was further investigated around these concentrations using the transwell migration assay (FIG. 17B).
FIG. 17: REC migration. A) Increasing concentrations of compound (II-4) inhibit VEGF-induced migration in a scratch wound assay; [Serum Free-control, VEGF (100 ng/mL), VEGF+100 nM, 500 nM, 10 μM, 100 μM] (IC50≈180 ηM; n=6/group). Cells were stained with DAPI for representative images. B) RECs seeded onto transwell membranes were stimulated with VEGF+ vehicle or compound (II-4) for 24 hrs. Cells were removed from the topside of membrane and migrated cells were stained with DAPI [Serum-Free (SF), VEGF, +100, +500 nM, respectively]. Cell number was measured using fluorescence microscopy. All data are mean±SD (*, # P<0.001)

[6] = tested on: paxillin; experiment: Murine OIR model, Western blot of retinal homogenates; format: in vivo, mouse; settings: daily ocular administration 0.5 mg/kg or 5 mg/kg, P17
From the text: as §2, §3

COc1cc(C2OC(=O)Nc3c2ccc2ccccc32)cc(OC)c1OC (centres unmarked) [compound II-4]
microsomal stability (metabolism by cytochrome P-450 enzymes) [1]: rapidly metabolized
cell proliferation (CFSE) [2]: not affected
susceptibility to P-450 interaction in human microsomes compared to rodent ([3]; human vs rodent microsomes): less susceptible
microsomal stability (metabolism by cytochrome P-450 enzymes) ([3]; human, 1 μM, 37° C., 60 min): rapidly metabolized
hypoxia-induced neovascularization (neovascular area) [4]: striking inhibition; also recorded: reductions in NV
retinal avascular area [4]: modest increase; also recorded: increases in AV
migration of RECs in transwell migration assay [5]: significant decrease
total paxillin in retinal homogenates [6]: dose-dependent reduction; also recorded: reduced total paxillin protein
